According to PubChem BioAssay AID304 (DTP/NCI, 2004):
Where “and” joins values, the source holds several entries; their conditions need not be identical. Equal entries are not always repeated. Inconclusive results and toxic doses are left out.

System: Lymphosarcoma Mecca ip in C3AKF1 mice, survival T/C%
Test: NCI In Vivo Anticancer Drug Screen. Data for tumor model Lymphosarcoma Mecca (intraperitoneal) in C3AKF1 (CHKRF1) mice
Conditions: endpoint: survival time, mean or median, higher = longer survival
Description: The antitumor activity of compounds was measured in mice bearing transplantable tumors. Survival or tumor size were measured and the results are expressed as the measurement made in the treated group (T) divided by the measurement made in the vehicle treated control group (C). The tumor model used in this assay is Lymphosarcoma Mecca (intraperitoneal) in C3AKF1 (CHKRF1) mice

[1] = dose: 2.0 mg/kg/injection, schedule: Q01DX010 (ip), vehicle: saline
[2] = dose: 4.0 mg/kg/injection, schedule: Q01DX010 (ip), vehicle: saline
[3] = dose: 25.0 mg/kg/injection, schedule: Q01DX010 (ip), vehicle: saline
[4] = dose: 50.0 mg/kg/injection, schedule: Q01DX010 (ip), vehicle: saline
[5] = dose: 100.0 mg/kg/injection, schedule: Q01DX010 (ip), vehicle: saline
[6] = dose: 1.25 mg/kg/injection, schedule: Q01DX010 (ip), vehicle: saline
[7] = dose: 2.5 mg/kg/injection, schedule: Q01DX010 (ip), vehicle: saline
[8] = dose: 20.0 mg/kg/injection, schedule: Q01DX010 (ip), vehicle: saline
[9] = dose: 5.0 mg/kg/injection, schedule: Q01DX010 (ip), vehicle: saline
[10] = dose: 10.0 mg/kg/injection, schedule: Q01DX010 (ip), vehicle: saline
[11] = dose: 3.0 mg/kg/injection, schedule: Q01DX010 (ip), vehicle: saline
[12] = dose: 6.0 mg/kg/injection, schedule: Q01DX010 (ip), vehicle: saline
[13] = dose: 12.0 mg/kg/injection, schedule: Q01DX010 (ip), vehicle: saline
[14] = dose: 125.0 mg/kg/injection, schedule: Q01DX010 (ip), vehicle: saline
[15] = dose: 250.0 mg/kg/injection, schedule: Q01DX010 (ip), vehicle: saline

COCCCNP(=S)(N1CC1)N1CC1
T/C (dose: 0.5 mg/kg/injection, schedule: Q01DX010 (ip), vehicle: saline): 100 % of control
T/C (dose: 1.0 mg/kg/injection, schedule: Q01DX010 (ip), vehicle: saline): 100 % of control
T/C [1]: 100 % of control
T/C [2]: 105 % of control

C[C@H](N)C(=O)N[C@@H]1[C@H]2C(=C(O)C[C@@H](O)[C@@H]2O)C(=O)O[C@@H]1C
T/C (dose: 150.0 mg/kg/injection, schedule: Q01DX010 (ip), vehicle: saline): 155 % of control
T/C (dose: 300.0 mg/kg/injection, schedule: Q01DX010 (ip), vehicle: saline): 92 % of control
T/C (dose: 600.0 mg/kg/injection, schedule: Q01DX010 (ip), vehicle: saline): 100 % of control and 120 % of control
T/C (dose: 1200.0 mg/kg/injection, schedule: Q01DX010 (ip), vehicle: saline): 155 % of control

Cc1cc2nc3c(=O)[nH]c(=O)nc-3n(CC(O)C(O)C(O)C(O)CO)c2cc1C (stereo unspecified)
T/C [3]: 95 % of control
T/C [4]: 90 % of control and 95 % of control
T/C [5]: 90 % of control and 100 % of control
T/C (dose: 200.0 mg/kg/injection, schedule: Q01DX010 (ip), vehicle: saline): 90 % of control and 100 % of control

CCN(CC)CCNc1ccc(C)c2sc3ccccc3c(=O)c12
T/C [3]: 116 % of control and 122 % of control
T/C [4]: 105 % of control
T/C [5]: 111 % of control

O=C(O)c1[nH]c(=O)[nH]c(=O)c1F
T/C [6]: 100 % of control
T/C [7]: 88 % of control and 122 % of control
T/C [8]: 122 % of control

CN(C)[C@@H]1C(=O)C(C(N)=O)=C(O)[C@@]2(O)C(=O)C3=C(O)c4c(O)cccc4C[C@H]3C[C@@H]12
T/C (dose: 3.75 mg/kg/injection, schedule: Q01DX010 (ip), vehicle: saline): 100 % of control
T/C (dose: 7.5 mg/kg/injection, schedule: Q01DX010 (ip), vehicle: saline): 100 % of control
T/C (dose: 15.0 mg/kg/injection, schedule: Q01DX010 (ip), vehicle: saline): 100 % of control
T/C (dose: 30.0 mg/kg/injection, schedule: Q01DX010 (ip), vehicle: saline): 90 % of control and 94 % of control

C[C@@H]1C[C@@H]([C@H](O)CC2CC(=O)NC(=O)C2)C(=O)[C@@H](C)C1
T/C [9]: 109 % of control
T/C [10]: 100 % of control and 113 % of control
T/C [8]: 95 % of control

CC[n+]1c(-c2ccccc2)c2cc(N)ccc2c2ccc(N)cc21
T/C [6]: 100 % of control
T/C [7]: 100 % of control and 120 % of control
T/C [9]: 100 % of control
T/C [10]: 105 % of control and 120 % of control
T/C [8]: 105 % of control

Nc1ncnc2[nH]ncc12
T/C (dose: 1.5 mg/kg/injection, schedule: Q01DX010 (ip), vehicle: saline): 105 % of control
T/C [11]: 111 % of control and 115 % of control
T/C [12]: 95 % of control
T/C [13]: 95 % of control

CC(=O)O[C@]1(C(C)=O)CC[C@H]2[C@@H]3C[C@H](C)C4=CC(=O)C=C[C@]4(C)[C@@]3(F)[C@@H](O)C[C@@]21C
T/C (dose: 12.5 mg/kg/injection, schedule: Q01DX010 (sc), vehicle: steriod suspending solution): 105 % of control
T/C (dose: 25.0 mg/kg/injection, schedule: Q01DX010 (sc), vehicle: steriod suspending solution): 100 % of control
T/C (dose: 50.0 mg/kg/injection, schedule: Q01DX010 (sc), vehicle: steriod suspending solution): 100 % of control
T/C (dose: 100.0 mg/kg/injection, schedule: Q01DX010 (sc), vehicle: steriod suspending solution): 90 % of control

NC(Cc1ccc(N(CCCl)CCCl)cc1)C(=O)O (stereo unspecified)
T/C [1]: 188 % of control and 190 % of control
T/C [2]: 165 % of control and 224 % of control
T/C [9]: 160 % of control
T/C (dose: 8.0 mg/kg/injection, schedule: Q01DX010 (ip), vehicle: saline): 168 % of control
T/C [10]: 105 % of control and 110 % of control
T/C (dose: 16.0 mg/kg/injection, schedule: Q01DX010 (ip), vehicle: saline): 100 % of control and 108 % of control
T/C [8]: 95 % of control

CCCSc1ncnc2nc[nH]c12
T/C (dose: 31.3 mg/kg/injection, schedule: Q01DX010 (ip), vehicle: saline): 105 % of control and 111 % of control
T/C (dose: 62.5 mg/kg/injection, schedule: Q01DX010 (ip), vehicle: saline): 105 % of control and 111 % of control
T/C [14]: 105 % of control
T/C [15]: 88 % of control

CCOC(N)=O
T/C [14]: 90 % of control and 104 % of control
T/C [15]: 86 % of control and 95 % of control
T/C (dose: 500.0 mg/kg/injection, schedule: Q01DX010 (ip), vehicle: saline): 95 % of control and 122 % of control

N=C(N)c1ccc(Nc2ccc(C(=N)N)cc2)cc1
T/C [11]: 100 % of control
T/C [12]: 90 % of control and 100 % of control
T/C [13]: 100 % of control and 110 % of control
T/C (dose: 24.0 mg/kg/injection, schedule: Q01DX010 (ip), vehicle: saline): 100 % of control
